A short description of data set [1]: Pharmacokinetics in female BALB/c nude mice bearing A375 xenografts, 1 day dosing (PK and PD study): plasma, tumor and brain concentrations, AUC. To be noted: 100 mg/kg p.o. QD × 1 day; for Mean Concentration in Brain ± SEM / Mean Concentration in Plasma ± SEM: BQL: below the lower limit of quantitation. Format: in vivo. From the text: The concentrations of Dabrafenib, Compound 26 and Compound 141 in the treatment of female BALB/c nude mice bearing A375 xenografts are shown in Table 62-Table 72 and FIG. 52-FIG. 73.

The nature of data set [2]: Example 9 pharmacokinetics assay for the PK and PD study Part I, II and III (plasma, tumor, liver). Format: in vivo, BALB/c nude mice. To be noted: mouse, po, 100 mg/kg, p.o., single dose, ± SEM. On the procedure:
For the PK and PD study Part I, agents were administered to BALB/c nude mice bearing A375 human melanoma xenografts tumors. Dabrafenib, Compound 218 and Compound 157 were dosed via p.o. once on day 1. Dabrafenib was dosed at 100 mg/kg. Compound 218 and Compound 157 were dosed at 10 mg/kg.
For the PK and PD study Part II, agents were administered to BALB/c nude mice bearing A375 human melanoma xenografts tumors. Compound 133, Compound 144 and Compound 198 were dosed at 10 mg/kg via p.o. once on day 1.
For the PK and PD study Part III, agent was administered to BALB/c nude mice bearing A375 human melanoma xenografts tumors. Compound 204 were dosed at 10 mg/kg via p.o. once on day 1.
(§1) The plasma samples were collected at predetermined time points for PK analysis. The mice were euthanized at predetermined time points post the treatment. The blood samples were collected into the 1.5 mL Eppendorf tubes containing 15 μL of 0.5 M EDTA-K2. And then the anticoagulant blood samples were centrifuged at 2,500 g at 4° C. for 15 minutes. The plasma samples were separated into 2 aliquots. The 1st was used for PK analysis, and the 2nd served as backup. The samples were stored at −80° C. before bioanalysis.
(§2) The tumor samples were collected at predetermined time points for PK and WB analysis. The tumor was dissected out and split into 3 parts. The 1st part was used for PK analysis, the 2nd part was used for WB analysis and the last one served as backup for study. The samples were transferred into pre-labeled tubes and quickly froze in liquid nitrogen within 2 minutes after dissection. The samples were stored at −80° C. before bioanalysis.
(§3) Liver samples were collected at predetermined time points for PK analysis. The left lobe of the liver was dissected out and split into 2 parts. The 1st part was used for PK analysis and the 2nd part served as the backup for the study. The samples were transferred into pre-labeled tubes and quickly froze in liquid nitrogen within 2 minutes after dissection. The samples were stored at −80° C. before bioanalysis.
The harvested plasma, tumor and liver samples were processed for pharmacokinetics analysis by LC-MS/MS with a concentration range of 5.00-10,000 ng/mL for Compound 218, Compound 157 and Compound 133 in plasma, 0.500-1,000 ng/ml for Compound 218 in liver and tumor homogenate, 0.200-400 ng/mL for Compound 157, Dabrafenib and Compound 133 in liver and tumor homogenate, 0.500-1000 ng/mL for Dabrafenib and Compound 204 in plasma, 0.200-200 ng/mL for Compound 204 in liver and tumor homogenate, 20.0-20,000 ng/mL for Compound 144 and Compound 198 in plasma, 1.00-1,000 ng/mL for Compound 144 and Compound 198 in liver and tumor homogenate.

Data set [3] is described as follows: Example 8 pharmacokinetics assay for PKPD study (plasma, tumor, liver). Format: in vivo, BALB/c nude mice. To be noted: mouse, po, 35 mg/kg, p.o., single dose. On the procedure:
For the PK and PD study, agents were administered to BALB/c nude mice bearing A375 human melanoma xenografts tumors. encorafenib, Compound 8, Compound 26, Compound 38, and Compound 39 were dosed p.o. once on day 1. Encorafenib was dosed at 35 mg/kg, Compound 8, Compound 26, Compound 38, and Compound 39 were dosed at 10 mg/kg. This study was non-GLP.
as §1, with “analysis. For non-termination plasma collection, blood samples were collected into the 1.5 mL Eppendorf tubes containing 3 μL of 0.5 M EDTA-K2. For termination plasma collection, the” for “analysis. The”, “the treatment and the” for “the treatment. The”
as §2, §3
The harvested plasma and liver samples were processed for pharmacokinetics analysis by LC-MS/MS with a concentration range of 0.200~200 ng/mL for encorafenib in plasma and liver homogenate, and 0.100-100 ng/ml in tumor homogenate, 1.00-1000 ng/mL for Compound 8 in plasma and 0.500~500 ng/ml in tumor and liver homogenate, 50.0~50,000 ng/mL for Compound 26 and Compound 38 in plasma, 5.0~5000 ng/ml in liver and 2.00~2000 ng/ml in tumor homogenate, 1.00-1000 ng/mL for Compound 39 in plasma and 0.500~500 ng/mL in liver and tumor homogenate.

Setting [4] is: mouse, brain, po, 100 mg/kg, read-out: Mean Concentration in Brain ± SEM.
Where [5] appears, read: mouse, plasma, po, 100 mg/kg, read-out: Mean Concentration in Plasma ± SEM.
[6] abbreviates: mouse, tumor, po, 100 mg/kg, read-out: Mean Concentration in Tumor ± SEM.
Where [7] appears, read: liver, read-out: Mean Concentration in Liver.
The mark [8] stands for this setting: plasma, read-out: Mean Concentration in Plasma.
Where [9] appears, read: tumor, read-out: Mean Concentration in Tumor.
[10] abbreviates: liver, read-out: Concentration in Liver (mean ± SEM).
Setting [11] is: plasma, read-out: Concentration in Plasma (mean ± SEM).
Where [12] appears, read: tumor, read-out: Concentration in Tumor (mean ± SEM).

Like-named read-outs stand apart in the source and are kept apart here.

On to `CC(C)(C)c1nc(-c2cccc(NS(=O)(=O)c3c(F)cccc3F)c2F)c(-c2ccnc(N)n2)s1` [Dabrafenib, dabrafenib, reference compound], for which the “Mean Concentration in Brain ± SEM” value is listed as “BQL^a” in data set [1] (10 h) and “BQL” in data set [1] (24 h). For the same compound, the “Mean Concentration in Plasma ± SEM” value in data set [1] (36 h) and in data set [1] (48 h) was “BQL” each time. For the same compound, the concentration at 1 h in data set [1] (setting [4]) turned out to be 1040 ± 349 ng/g; in data set [1] (setting [5]), 7490 ± 1360 ng/mL; in data set [1] (setting [6]), 8660 ± 4660 ng/g; in data set [2] (setting [8]), 5920 ± 2380 ng/mL; in data set [2] (setting [9]) it was 4920 ± 1490 ng/g. Moreover, the concentration at 4 h in data set [1] (setting [4]) is 6.13 ng/g; in data set [1] (setting [5]), 110 ± 37.6 ng/mL; in data set [1] (setting [6]), 442 ± 257 ng/g. The concentration at 48 h in data set [1] (mouse, brain, po, 100 mg/kg, 48 h, read-out: Mean Concentration in Brain ± SEM) worked out at 15.2 ng/g; in data set [1] (mouse, tumor, po, 100 mg/kg, 48 h, read-out: Mean Concentration in Tumor ± SEM), 4.66 ng/g. The area under the curve (AUC) (as a rule, concentration integrated over time) at 24 h in data set [1] (mouse, brain, po, read-out: Brain AUC at 24 hours, Average) is 1580 ng·h/mL; in data set [1] (mouse, plasma, po, read-out: Plasma AUC at 24 hours, Average), 32100 ng·h/mL; in data set [1] (mouse, tumor, po, read-out: Tumor AUC at 24 hours, Average) it was 1680 ng·h/mL. The concentration at 0.25 h in data set [1] (mouse, plasma, po, 100 mg/kg, 0.25 h, read-out: Mean Concentration in Plasma ± SEM) came to 62200 ± 10900 ng/mL. Besides, in data set [1] (mouse, plasma, po, 100 mg/kg, 0.5 h, read-out: Mean Concentration in Plasma ± SEM), the concentration at 0.5 h came to 44700 ± 11600 ng/mL. The concentration at 2 h in data set [1] (mouse, plasma, po, 100 mg/kg, 2 h, read-out: Mean Concentration in Plasma ± SEM) stood at 844 ± 198 ng/mL. Besides, in data set [1] (mouse, plasma, po, 100 mg/kg, 8 h, read-out: Mean Concentration in Plasma ± SEM), the concentration at 8 h was 55.6 ± 15.5 ng/mL. Further, the concentration at 10 h in data set [1] (mouse, plasma, po, 100 mg/kg, 10 h, read-out: Mean Concentration in Plasma ± SEM) is 25.9 ± 2.09 ng/mL; in data set [1] (mouse, tumor, po, 100 mg/kg, 10 h, read-out: Mean Concentration in Tumor ± SEM), 18 ± 1.88 ng/g. Also, the concentration at 24 h in data set [1] (mouse, plasma, po, 100 mg/kg, 24 h, read-out: Mean Concentration in Plasma ± SEM) is 0.616 ng/mL; in data set [1] (mouse, tumor, po, 100 mg/kg, 24 h, read-out: Mean Concentration in Tumor ± SEM), 253 ng/g; in data set [2] (setting [8]), 1.09 ± 0.467 ng/mL; in data set [2] (setting [9]), 1.87 ± 0.9 ng/g. In addition, the concentration at 6 h in data set [2] (setting [7]) was determined as 1010 ± 111 ng/g; in data set [2] (setting [8]) it was 259 ± 45.4 ng/mL; in data set [2] (setting [9]), 237 ± 4.91 ng/g. Also, the concentration at 12 h in data set [2] (setting [7]) was 277 ± 125 ng/g; in data set [2] (setting [8]) it was 88.7 ± 42.7 ng/mL; in data set [2] (setting [9]), 54 ± 13.5 ng/g.

For `COC(=O)N[C@@H](C)CNc1nccc(-c2cn(C(C)C)nc2-c2cc(Cl)cc(NS(C)(=O)=O)c2F)n1` [Encorafenib, encorafenib, reference compound], in data set [3] (setting [10]), the concentration at 6 h was determined as 362 ± 231 ng/g and the concentration at 12 h came to 16 ± 5.3 ng/g. Moreover, in data set [3] (setting [11]), the concentration at 1 h worked out at 5510 ± 1700 ng/mL, the concentration at 6 h came to 585 ± 446 ng/mL and the concentration at 12 h amounted to 11.3 ± 8.5 ng/mL. The concentration at 24 h in data set [3] (plasma, 24 h, read-out: Concentration in Plasma (mean ± SEM)) was 0.368 ± 0.082 ng/mL. Moreover, in data set [3] (setting [12]), the concentration at 1 h came out at 1350 ± 391 ng/g, the concentration at 6 h amounted to 139 ± 76.2 ng/g and the concentration at 12 h was 16.1 ± 10.9 ng/g.

(Values after patent US20260297060A1, “COMPOUNDS FOR THE DEGRADATION OF MUTANT BRAF” (C4 THERAPEUTICS, INC., priority 2023, published 2026).)
